Legend:
[1] = test system: fungal vacuolar-type (H+)-ATPase (from Neurospora crassa); test: fungal vacuolar-type (H+)-ATPase inhibition, side-by-side test; format: biochemical
From the text: (§1) The inhibitory data were obtained using the same procedures and biological preparations described in Bowman et al., Proc. Natl. Acad. Sci. USA, 85, 7972-7976 (November 1988).

[2] = test system: mammalian vacuolar-type (H+)-ATPase (from chromaffin granule membranes); test: mammalian vacuolar-type (H+)-ATPase inhibition, side-by-side test; format: biochemical; details: chromaffin granule membranes; side-by-side test
From the text: as §1

Structure (SMILES): C/C=C/[C@H]1O[C@@](O)([C@@H](C)[C@H](O)[C@H](C)[C@H]2OC(=O)/C(OC)=C/C(C)=C/[C@@H](C)[C@@H](O)[C@@H](CC)[C@@H](O)[C@H](C)C/C(C)=C/C=C/[C@@H]2OC)C[C@@H](O[C@H]2C[C@@H](O)[C@H](OC(N)=O)[C@@H](C)O2)[C@@H]1C [concanamycin A, reference compound]
- inhibitory activity against fungal vacuolar-type (H+)-ATPase [1]: potent inhibitor
- inhibitory activity against mammalian vacuolar-type (H+)-ATPase [2]: potent inhibitor
